Values of other authors in article PMC7587962, “Evaluation of Cytotoxicity and α-Glucosidase Inhibitory Activity of Amide and Polyamino-Derivatives of Lupane Triterpenoids” (Molecules, 2020).

Test system: DU-145
Design: method as in PMID 25405285
Settings: standard drugs used by NCI as control; cited from earlier work

In the case of `COc1cccc2c1C(=O)c1c(O)c3c(c(O)c1C2=O)C[C@@](O)(C(=O)CO)C[C@@H]3O[C@H]1C[C@H](N)[C@H](O)[C@H](C)O1` [DRB, doxorubicin], the GI50 is listed as 110 nM.
